Results published in US8697683B2, “Azetidinyl diamides as monoacylglycerol lipase inhibitors” (Janssen Pharmaceutica, NV, priority 2009, dated 2014).

Tests used:
[1] = system: CCI-induced cold hypersensitivity; experiment: Chronic Constriction Injury (CCI)-Induced Model of Neuropathic Pain-Cold Acetone-Hypersensitivity Test; type: in vivo; details: Sprague-Dawley rats, 30 mg/kg p.o., HPβCD vehicle, last time point 4 h
Description: Fourteen to 35 days following CCI surgery, subjects were placed in elevated observation chambers containing wire mesh floors, and five applications of acetone (0.05 mL/application separated by about 5 min) were spritzed onto the plantar surface of the paw using a multidose syringe. An abrupt withdrawal or lifting of the paw was considered a positive response. The number of positive responses was recorded for each rat over the five trials. Following baseline withdrawal determinations, compounds were administered in the indicated vehicle, by the indicated route (see Table 6). The number of withdrawals was re-determined 1 to 4 h after compound administration.

[2] = murine model of acute inflammation; cited from earlier work
tactile allodynia = experiment: Spinal Nerve Ligation (SNL) Model of Neuropathic Pain-Tactile Allodynia Test; type: in vivo, rat; details: L5 SNL rats, 30 mg/kg p.o., HPβCD vehicle, last time point 4 h
Text: For lumbar 5 (L5) spinal nerve ligation (SNL) studies, anesthesia was induced and maintained on isoflurane inhalation. Fur was clipped over the dorsal pelvic area, and a 2-cm skin incision was made just left of midline over the dorsal aspect of the L4-S2 spinal segments, followed by separation of the paraspinal muscles from spinous processes. The transverse process of L6 was then carefully removed, and the L5 spinal nerve was identified. The left L5 spinal nerve was then ligated tightly with 6-0 silk thread, the muscle was sutured with 4-0 vicryl, and the skin was closed with wound clips. Following surgery, s.c. saline (5 mL) was administered. Behavioral testing was performed four weeks post-ligation. Following baseline von Frey determinations to verify the presence of mechanical allodynia, L5 SNL rats were orally administered the indicated vehicle or drug. […] which the paw ipsilateral to the nerve ligation was withdrawn from the application of a series of calibrated von Frey filaments (0.4, 0.6, 1.0, 2.0, 4, 6, 8 and 15 g; Stoelting; Wood Dale, Ill.). Beginning at an intermediate stiffness (2.0 g), filaments were applied to the mid-plantar hind paw for approximately 5 seconds. to determine the response threshold, a brisk paw withdrawal led to the presentation of the next lighter stimulus, whereas a lack of a withdrawal response led to the presentation of the next stronger stimulus. A total of four responses after the first threshold detection were collected. The 50% withdrawal thresholds were interpolated by the method of Dixon, Efficient analysis of experimental observations. Annu. Rev. Pharmacol. […] Neurosci. […] Threshold data from von Frey filament testing were reported as withdrawal threshold in grams. Data were normalized and results are presented as % MPE (maximum possible effect) of the drug calculated according to the following formula: [formula]

[3] = system: CFA induced paw pressure hypersensitivity; experiment: CFA-Induced Paw Pressure Hypersensitivity; type: in vivo; details: rat, dose 30, s.c., HPβCD vehicle, time 1 h
Description: Prior to testing, rats were acclimated to the handling procedure twice a day for a period of two days. […] The endpoint was automatically reached upon hindpaw withdrawal, and the terminal force was noted (in grams). An initial (baseline) response threshold to the mechanical stimulus was recorded for each animal prior to the injection of complete Freund's adjuvant (CFA). Forty hr following intraplantar CFA injection, the response threshold of the animal to the mechanical stimulus was re-evaluated and compared to the animal's baseline response threshold. A response was defined as a withdrawal of the hindpaw, a struggling to remove the hindpaw or vocalization. […] Immediately following the post-CFA threshold assessment, rats were administered the indicated test compound or vehicle. Post-treatment withdrawal thresholds were assessed at 1 h. Paw withdrawal thresholds were converted to percent reversal of hypersensitivity according to the following formula: % reversal=[(post treatment response−predose response)/(baseline response−predose response)]×100.

SMILES	peak percent inhibition [1] [%]	antinociceptive effect [2]	peak % MPE (tactile allodynia) [%]	percent reversal [3] [%]
O=C(c1ccccc1)N1CCN(C2CN(C(=O)c3ccc(-c4ccccc4)cc3)C2)CC1 [Cpd 5, 1-[1-(Biphenyl-4-ylcarbonyl)azetidin-3-yl]-4-(phenylcarbonyl)piperazine]	26.7			
O=C(Nc1cccc(-c2ccccc2)c1)OC1CCCCC1 [URB602]		showed an antinociceptive effect		
O=C(c1ccc2c(ccn2-c2ccc(F)cc2)c1)N1CC(N2CCN(C(=O)c3nccs3)CC2)C1 [Cpd 487, 1-(4-Fluorophenyl)-5-({3-[4-(1,3-thiazol-2-ylcarbonyl)piperazin-1-yl]azetidin-1-yl}carbonyl)-1H-indole]	100		61.2	61.8
